Laboratory results reported in PubChem BioAssay AID330 (DTP/NCI, 2004).
Values joined by “and” are separate entries in the source; they are usually repeats but may differ in a detail not shown here. Equal entries are not always repeated. Inconclusive results and toxic doses are left out. The calls were made as follows: active = survival T/C of 150% or more; inactive = T/C below 125% in these data.

Test system: P388 leukemia ip, CD2F1 mice, survival T/C
Experiment: NCI In Vivo Anticancer Drug Screen. Data for tumor model P388 Leukemia (intraperitoneal) in CD2F1 (CDF1) mice
Settings: endpoint: median survival time, higher = longer survival
Method in brief: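 Mice carrying the transplanted tumor received test compound or vehicle. Survival was recorded in each group, and the value is the treated-group measurement divided by that of the vehicle-treated control group.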

[1] = dose: 100.0 mg/kg/injection, schedule: Q01DX009 (ip), vehicle: saline
[2] = dose: 200.0 mg/kg/injection, schedule: Q01DX009 (ip), vehicle: saline
[3] = dose: 12.5 mg/kg/injection, schedule: Q01DX009 (ip), vehicle: saline
[4] = dose: 25.0 mg/kg/injection, schedule: Q01DX009 (ip), vehicle: saline
[5] = dose: 50.0 mg/kg/injection, schedule: Q01DX009 (ip), vehicle: saline
[6] = dose: 50.0 mg/kg/injection, schedule: Q01DX009 (ip), vehicle: Klucel (hydroxypropylcellulose) (HPC)
[7] = dose: 100.0 mg/kg/injection, schedule: Q01DX009 (ip), vehicle: Klucel (hydroxypropylcellulose) (HPC)
[8] = dose: 200.0 mg/kg/injection, schedule: Q01DX009 (ip), vehicle: Klucel (hydroxypropylcellulose) (HPC)
[9] = dose: 12.5 mg/kg/injection, schedule: Q01DX005 (ip), vehicle: saline
[10] = dose: 25.0 mg/kg/injection, schedule: Q01DX005 (ip), vehicle: saline
[11] = dose: 50.0 mg/kg/injection, schedule: Q01DX005 (ip), vehicle: saline with Tween-80
[12] = dose: 100.0 mg/kg/injection, schedule: Q01DX005 (ip), vehicle: saline with Tween-80
[13] = dose: 200.0 mg/kg/injection, schedule: Q01DX005 (ip), vehicle: saline with Tween-80
[14] = dose: 200.0 mg/kg/injection, schedule: Q01DX009 (ip), vehicle: saline with Tween-80

Measured: T/C

COc1cc(CO)ccc1O
inactive: [1] 102 % of control and 105 % of control | [2] 89 % of control and 93 % of control | dose: 400.0 mg/kg/injection, schedule: Q01DX009 (ip), vehicle: saline 99 % of control and 104 % of control | dose: 600.0 mg/kg/injection, schedule: Q01DX009 (ip), vehicle: saline 107 % of control and 89 % of control

O=c1nc2n(c3nccnc13)CCS2
inactive: [3] 111 % of control | [4] 104 % of control | [5] 100 % of control

C[C@@H]1CCC[C@@H](NC(=O)N(CCCl)N=O)C1
active: dose: 18.75 mg/kg/injection, schedule: Q01DX009 (ip), vehicle: Klucel (hydroxypropylcellulose) (HPC) 176 % of control | dose: 37.5 mg/kg/injection, schedule: Q01DX009 (ip), vehicle: Klucel (hydroxypropylcellulose) (HPC) 193 % of control | dose: 75.0 mg/kg/injection, schedule: Q01DX009 (ip), vehicle: Klucel (hydroxypropylcellulose) (HPC) 249 % of control

C/C(=N/N=C(N)N)c1cnc(N/N=C(\C)c2cnc(NN)nc2C)nc1C
inactive: dose: 7.5 mg/kg/injection, schedule: Q01DX005 (ip), vehicle: saline 103 % of control | dose: 15.0 mg/kg/injection, schedule: Q01DX005 (ip), vehicle: saline 94 % of control | dose: 30.0 mg/kg/injection, schedule: Q01DX005 (ip), vehicle: saline 97 % of control

COc1ccc(/C(N)=N/OCc2ccc(C#N)cc2)cc1
inactive: [6] 96 % of control | [7] 93 % of control | [8] 95 % of control

BrCc1cccnc1
inactive: [9] 103 % of control | [10] 103 % of control | dose: 50.0 mg/kg/injection, schedule: Q01DX005 (ip), vehicle: saline 103 % of control and 110 % of control

COc1cc(N(CCCl)CCCl)ccc1/C=N\NC(=O)c1cccnc1
inactive: dose: 25.0 mg/kg/injection, schedule: Q01DX007 (ip), vehicle: Klucel (hydroxypropylcellulose) (HPC) 95 % of control | dose: 50.0 mg/kg/injection, schedule: Q01DX007 (ip), vehicle: Klucel (hydroxypropylcellulose) (HPC) 108 % of control | dose: 100.0 mg/kg/injection, schedule: Q01DX007 (ip), vehicle: Klucel (hydroxypropylcellulose) (HPC) 100 % of control | dose: 200.0 mg/kg/injection, schedule: Q01DX007 (ip), vehicle: Klucel (hydroxypropylcellulose) (HPC) 101 % of control

CC(C)CC1[NH][Sn]2([NH]C(CC(C)C)C(=O)[O]2)[O]C1=O (centres undefined)
inactive: dose: 6.25 mg/kg/injection, schedule: Q01DX005 (ip), vehicle: Klucel (hydroxypropylcellulose) (HPC) 104 % of control | dose: 12.5 mg/kg/injection, schedule: Q01DX005 (ip), vehicle: Klucel (hydroxypropylcellulose) (HPC) 105 % of control | dose: 25.0 mg/kg/injection, schedule: Q01DX005 (ip), vehicle: Klucel (hydroxypropylcellulose) (HPC) 104 % of control

N#CNC(c1ccccc1)(c1ccccc1)c1ccccc1
inactive: [11] 98 % of control | [12] 98 % of control | [13] 94 % of control

OC1C[n+]2cc3ccccn3c2-c2cccc[n+]21 (centres undefined)
inactive: [3] 94 % of control | [4] 97 % of control | [5] 100 % of control

Cc1cccc(C2(C)C(=O)c3ccccc3C2=O)c1
inactive: dose: 100.0 mg/kg/injection, schedule: Q04DX002 (ip), vehicle: saline 100 % of control | dose: 200.0 mg/kg/injection, schedule: Q04DX002 (ip), vehicle: saline 105 % of control | dose: 400.0 mg/kg/injection, schedule: Q04DX002 (ip), vehicle: saline 102 % of control

Nc1nc(Cl)c2ncn(C3OC(CO)C(O)C3O)c2n1 (centres undefined)
inactive: [14] 98 % of control | dose: 400.0 mg/kg/injection, schedule: Q01DX009 (ip), vehicle: saline with Tween-80 100 % of control

O=P(Oc1ccc(OP(=O)(N2CC2)N2CC2)cc1)(N1CC1)N1CC1
active: dose: 100.0 mg/kg/injection, schedule: Q01DX009 (ip), vehicle: saline with Tween-80 154 % of control | [14] 181 % of control | dose: 200.0 mg/kg/injection, schedule: Q04DX003 (ip), vehicle: saline with Tween-80 154 % of control | dose: 264.0 mg/kg/injection, schedule: Q04DX003 (ip), vehicle: saline with Tween-80 166 % of control | dose: 400.0 mg/kg/injection, schedule: Q04DX003 (ip), vehicle: saline with Tween-80 166 % of control

C#CC(C)(CC)OC(=O)c1ccccc1C(=O)O (centres undefined)
inactive: [5] 100 % of control | [1] 104 % of control | [2] 95 % of control

O=C1C=C2CCCCCCCCCCC2CC1 (centres undefined)
inactive: dose: 50.0 mg/kg/injection, schedule: Q01DX005 (ip), vehicle: Klucel (hydroxypropylcellulose) (HPC) 103 % of control | dose: 100.0 mg/kg/injection, schedule: Q01DX005 (ip), vehicle: Klucel (hydroxypropylcellulose) (HPC) 92 % of control | dose: 200.0 mg/kg/injection, schedule: Q01DX005 (ip), vehicle: Klucel (hydroxypropylcellulose) (HPC) 92 % of control

COC1C(Br)C(C)(OC)c2ccccc2N1C#N (centres undefined)
inactive: [6] 101 % of control | [7] 100 % of control | [8] 100 % of control

Brc1c(-c2ccccc2)nc2ccccc2c1Br
inactive: [11] 103 % of control | [12] 97 % of control | [13] 94 % of control

CN1CC=C(c2ccccc2)CC1
inactive: dose: 6.25 mg/kg/injection, schedule: Q01DX005 (ip), vehicle: saline 97 % of control | [9] 99 % of control | [10] 101 % of control and 98 % of control

N#C/C(=C\C(Cl)=C/c1ccccc1)C(N)=S
inactive: [5] 103 % of control | [1] 100 % of control

O=C1C(=C2CCCC2)CC/C1=C1/SS/C(=C2/CCC(=C3CCCC3)C2=O)S1
inactive: [6] 99 % of control | [7] 101 % of control | [8] 100 % of control

FC(F)(F)C1(C(F)(F)F)CC2COc3ccccc3C2=N1 (centres undefined)
inactive: dose: 50.0 mg/kg/injection, schedule: Q04DX002 (ip), vehicle: suspension in saline 100 % of control | dose: 100.0 mg/kg/injection, schedule: Q04DX002 (ip), vehicle: suspension in saline 99 % of control | dose: 200.0 mg/kg/injection, schedule: Q04DX002 (ip), vehicle: suspension in saline 100 % of control

CN(C)C1(c2ccc3ccccc3c2)CSC1
inactive: dose: 100.0 mg/kg/injection, schedule: Q01DX001 (ip), vehicle: saline with Tween-80 100 % of control | dose: 200.0 mg/kg/injection, schedule: Q01DX001 (ip), vehicle: saline with Tween-80 100 % of control | dose: 400.0 mg/kg/injection, schedule: Q01DX001 (ip), vehicle: saline with Tween-80 96 % of control

Cc1ccc(NC(=O)Nc2nc3ccccc3s2)cc1NC(=O)Nc1nc2ccccc2s1
inactive: [6] 110 % of control | [7] 102 % of control | [8] 109 % of control

CC(C)C(N)P(=O)(O)O (centres undefined)
inactive: dose: 25.0 mg/kg/injection, schedule: Q01DX009 (ip), vehicle: suspension in saline 96 % of control | dose: 50.0 mg/kg/injection, schedule: Q01DX009 (ip), vehicle: suspension in saline 98 % of control | dose: 100.0 mg/kg/injection, schedule: Q01DX009 (ip), vehicle: suspension in saline 99 % of control | dose: 200.0 mg/kg/injection, schedule: Q01DX009 (ip), vehicle: suspension in saline 100 % of control

CC(=O)C1(O)CCCC(OC2CC(N)C(O)C(C)O2)C1 (centres undefined)
inactive: dose: 6.25 mg/kg/injection, schedule: Q01DX009 (ip), vehicle: water 100 % of control | dose: 12.5 mg/kg/injection, schedule: Q01DX009 (ip), vehicle: water 95 % of control | dose: 25.0 mg/kg/injection, schedule: Q01DX009 (ip), vehicle: water 104 % of control | dose: 50.0 mg/kg/injection, schedule: Q01DX009 (ip), vehicle: water 113 % of control | dose: 100.0 mg/kg/injection, schedule: Q01DX009 (ip), vehicle: water 113 % of control

CC(C)c1cc(C(C)C)c(S(=O)(=O)N/N=C2\C=CCC(C)(C)C2)c(C(C)C)c1
inactive: dose: 50.0 mg/kg/injection, schedule: Q01DX009 (ip), vehicle: DMSO 87 % of control | dose: 100.0 mg/kg/injection, schedule: Q01DX009 (ip), vehicle: DMSO 89 % of control | dose: 200.0 mg/kg/injection, schedule: Q01DX009 (ip), vehicle: DMSO 97 % of control

O=C(O)CCc1cc(Br)no1
inactive: [5] 101 % of control | [1] 93 % of control | [2] 93 % of control

O=C(Nc1ccc(Cl)cc1)c1cc2c(cc1O)[nH]c1ccccc12
inactive: [11] 92 % of control | [12] 96 % of control | [13] 98 % of control
